Measurements from US20060204457A1, “Cosmetic uv-screen compositions and aminobutadiene-based uv-absorbing complexes therefor” (priority 2003, published 2006).

Assay: Dye stability under Xenon test conditions; UV absorption after Xenon exposure
Type: physicochemical
Settings: thin layer on TAC base
Protocol: Measurements are carried out at the Ci 4000 Xenon Weather-Ometer of Atlas Electric Devices Company. The extinction wavelength spectrum represents sunlight spectrum. Experiments are carried out with samples consisting of thin layers of UV absorbing complexes coated on TAC base materials, and dryed under air before Xenon radiation was started.
Solutions for coating on the TAC sheet materials are prepared by making a 5% gelatin solution of UV-gelatin in a suitable solvent (water/ethanol 50:50) for 30 minutes at a temperature of 40 C.
A fixed concentration of the UV absorbing complex was applied with a concentration of 5*10^−3 Mol/L
UV absorption of samples is measured with standard UV spectrophotometer system. UV absorption is directly correlated to the number of functional molecules in the samples after the Xenon treatment, and the results are listed in the following table.
UV absorption after Xenon radiation (in hours treatment time).

SMILES: O=c1c(O)c(-c2ccc(O)c(O)c2)oc2cc(O)cc(O)c12 [Quercetin]
- UV absorption after Xenon radiation (0 hours treatment time): 0.85
- UV absorption after Xenon radiation (40 hours treatment time): 0.53
- UV absorption after Xenon radiation (80 hours treatment time): 0.20
- UV absorption after Xenon radiation (120 hours treatment time): 0.14
